Values quoted from earlier work as cited in PubChem BioAssay AID1259409 (Chemical Carcinogenesis Research Information System (CCRIS), 2018).

Test system: rodent chemically induced tumor inhibition, incidence and multiplicity
Assay: CCRIS tumor inhibitor studies

Nc1nc(N)c2nc(CNc3ccc(C(=O)N[C@@H](CCC(=O)O)C(=O)O)cc3)cnc2n1
tumour outcome (control, treated, inhibition, significance) (Carcinogen: URETHANE, 51-79-6, Dose [Inhibitor]: 0.25 UG/G BW IN DISTILLED WATER 1/D FOR 3 D FOLLOWED BY 0.5 UG/G BW ONCE ADMINISTERED AT SAME TIME AS CARCINOGEN TREATME, Route [Inhibitor]: INTRAPERITONEAL, Species: MOUSE, Strain/Sex: SWR/MALE, Target Tissue: Type of Lesion: LUNG: ADENOMA, Dose [Carcinogen]: 0.5 MG/G BW IN DISTILLED WATER ONCE AT 13 WK OF AGE, Promoter: NONE USED): 90%, 74%, 18%, not significant | tumour outcome (control, treated, inhibition, significance) (Carcinogen: URETHANE, 51-79-6, Dose [Inhibitor]: 0.25 UG/G BW IN DISTILLED WATER 1/D FOR 3 D FOLLOWED BY 0.5 UG/G BW ONCE ADMINISTERED AT SAME TIME AS CARCINOGEN TREATME, Route [Inhibitor]: INTRAPERITONEAL, Species: MOUSE, Strain/Sex: SWR/MALE, Target Tissue: Type of Lesion: LUNG: ADENOMA, Dose [Carcinogen]: 0.5 MG/G BW IN DISTILLED WATER ONCE AT 15 WK OF AGE, Promoter: NONE USED): 82%, 90%, -10%, not significant

Cc1c(C)c(N)c(C)c(C)c1N
outcome (Carcinogen: 7,12-DIMETHYLBENZ[A]ANTHRACENE, 57-97-6, Dose [Inhibitor]: 0.1% IN POWDERED DIET BEGINNING 1 WK POST CARCINOGEN DOSE FOR 51 WK (STUDY DURATION: 52 WK), Route [Inhibitor]: ORAL, Species: RAT, Strain/Sex: SPRAGUE-DAWLEY/FEMALE, Target Tissue: Type of Lesion: EAR DUCT: BENIGN TUMOR, Dose [Carcinogen]: 2.5 MG/100 G BW IN 0.5 ML SESAME OIL ONCE, Promoter: NONE USED): 7/19 (37%), 5/17 (29%), 20, not calculated | tumour outcome (control, treated, inhibition, significance) (Carcinogen: 7,12-DIMETHYLBENZ[A]ANTHRACENE, 57-97-6, Dose [Inhibitor]: 0.1% IN POWDERED DIET BEGINNING 1 WK POST CARCINOGEN DOSE FOR 51 WK (STUDY DURATION: 52 WK), Route [Inhibitor]: ORAL, Species: RAT, Strain/Sex: SPRAGUE-DAWLEY/FEMALE, Target Tissue: Type of Lesion: MAMMARY GLAND: CARCINOMA, Dose [Carcinogen]: 2.5 MG/100 G BW IN 0.5 ML SESAME OIL ONCE, Promoter: NONE USED): 6/19 (32%), 6/17 (35%), -12%, not calculated | tumour outcome (control, treated, inhibition, significance) (Carcinogen: 7,12-DIMETHYLBENZ[A]ANTHRACENE, 57-97-6, Dose [Inhibitor]: 0.1% IN POWDERED DIET BEGINNING 1 WK POST CARCINOGEN DOSE FOR 51 WK (STUDY DURATION: 52 WK), Route [Inhibitor]: ORAL, Species: RAT, Strain/Sex: SPRAGUE-DAWLEY/FEMALE, Target Tissue: Type of Lesion: MAMMARY GLAND: FIBROADENOMA, Dose [Carcinogen]: 2.5 MG/100 G BW IN 0.5 ML SESAME OIL ONCE, Promoter: NONE USED): 15/19 (79%), 4/17 (24%), 71%, p<0.01

COc1cc([C@H]2Oc3cc([C@H]4Oc5cc(O)cc(O)c5C(=O)[C@@H]4O)ccc3O[C@@H]2CO)ccc1O
outcome (Carcinogen: N-Butyl-N-(4-hydroxybutyl)nitrosamine, 3817-11-6, Dose [Inhibitor]: 200 mg/kg bw 1 wk before carcinogen, dose duration 51 wk, study duration 56 wk, Route [Inhibitor]: Oral (gavage) 5 d/wk, Species: Mouse, Strain/Sex: ICR/Male, Target Tissue: Type of Lesion: Urinary Bladder: carcinoma, Dose [Carcinogen]: 0, 0.5% in drinking water for 6 wk, Promoter: None): 52%, 4.1%, p=0.001

N#CCc1c[nH]c2ccccc12
tumour outcome (control, treated, inhibition, significance) (Carcinogen: 7,12-DIMETHYLBENZ[A]ANTHRACENE, 57-97-6, Dose [Inhibitor]: 0.03 MMOL/G DIET DAILY STARTING 8 D PRIOR TO AND CONTINUING THROUGH CARCINOGEN ADMINISTRATION FOLLOWED BY A 14 WK OBSERV, Route [Inhibitor]: ORAL, Species: RAT, Strain/Sex: SPRAGUE-DAWLEY/FEMALE, Target Tissue: Type of Lesion: MAMMARY GLAND: TUMOR, Dose [Carcinogen]: 12 MG IN 1 ML OLIVE OIL ONCE, Promoter: NONE USED): 73%, 54%, 26%, not significant | tumour outcome (control, treated, inhibition, significance) (Carcinogen: 7,12-DIMETHYLBENZ[A]ANTHRACENE, 57-97-6, Dose [Inhibitor]: 0.1 MMOL IN 1 ML DIMETHYL SULFOXIDE ONCE 20 HR PRIOR TO CARCINOGEN ADMINISTRATION FOLLOWED BY A 14 WK OBSERVATION PERIOD, Route [Inhibitor]: GAVAGE, Species: RAT, Strain/Sex: SPRAGUE-DAWLEY/FEMALE, Target Tissue: Type of Lesion: MAMMARY GLAND: TUMOR, Dose [Carcinogen]: 12 MG IN 1 ML OLIVE OIL ONCE, Promoter: NONE): 91%, 73%, 20%, not significant | tumour outcome (control, treated, inhibition, significance) (Carcinogen: 7,12-DIMETHYLBENZ[A]ANTHRACENE, 57-97-6, Dose [Inhibitor]: 0.1 MMOL IN 1 ML DIMETHYL SULFOXIDE ONCE 20 HR PRIOR TO CARCINOGEN ADMINISTRATION FOLLOWED BY A 14 WK OBSERVATION PERIOD, Route [Inhibitor]: GAVAGE, Species: RAT, Strain/Sex: SPRAGUE-DAWLEY/FEMALE, Target Tissue: Type of Lesion: MAMMARY GLAND: TUMOR, Dose [Carcinogen]: 12 MG IN 1 ML OLIVE OIL ONCE, Promoter: NONE USED): 60%, 50%, 17%, not significant | tumour outcome (control, treated, inhibition, significance) (Carcinogen: BENZO[A]PYRENE, 50-32-8, Dose [Inhibitor]: 0.03 MMOL/G DIET DAILY STARTING AT 63 D OF AGE (8 D PRIOR TO START OF CARCINOGEN TREATMENT) THROUGH 98 D OF AGE FOLLOWED, Route [Inhibitor]: ORAL, Species: MOUSE, Strain/Sex: ICR/FEMALE, Target Tissue: Type of Lesion: FORESTOMACH: TUMOR, Dose [Carcinogen]: 1 MG IN 0.2 ML CORN OIL ADMINISTERED 2/WK FOR 4 WK, Promoter: NONE USED): 93%, 68%, 27%, not significant | tumour outcome (control, treated, inhibition, significance) (Carcinogen: BENZO[A]PYRENE, 50-32-8, Dose [Inhibitor]: 0.03 MMOL/G DIET DAILY STARTING AT 63 D OF AGE (8 D PRIOR TO START OF CARCINOGEN TREATMENT) THROUGH 126 D OF AGE FOLLOWE, Route [Inhibitor]: ORAL, Species: MOUSE, Strain/Sex: ICR/FEMALE, Target Tissue: Type of Lesion: FORESTOMACH: TUMOR, Dose [Carcinogen]: 0.3 MG IN 0.2 ML CORN OIL ADMINISTERED 3/WK FOR 8 WK, Promoter: NONE USED): 100%, 44%, 56%, p<0.01

CN(C)C(=O)COC(=O)Cc1ccc(OC(=O)c2ccc(N=C(N)N)cc2)cc1
tumour outcome (control, treated, inhibition, significance) (Carcinogen: N-NITROSOBIS(2-OXOPROPYL)AMINE, 60599-38-4, Dose [Inhibitor]: 0, 500 PPM IN DIET FOR 5 WK DURING CARCINOGEN TREATMENT (STUDY DURATION: 30 WK), Route [Inhibitor]: ORAL, Species: HAMSTER, Strain/Sex: SYRIAN/FEMALE, Target Tissue: Type of Lesion: PANCREAS: ADENOCARCINOMA, Dose [Carcinogen]: 10 MG/KG 1/WK FOR 5 WK, Promoter: NONE USED): 24/30 (80%), 18/32 (56%), 30%, p<0.05

CC1(C)CC[C@]2(CO)CC[C@]3(C)C(=CC[C@@H]4[C@@]5(C)CC[C@H](O)[C@@](C)(CO)[C@@H]5CC[C@]43C)[C@@H]2C1
tumour outcome (control, treated, inhibition, significance) (Carcinogen: 7,12-DIMETHYLBENZ[A]ANTHRACENE, 57-97-6, Dose [Inhibitor]: 81 NMOL IN 100 µL ACETONE/DMSO (99:1) APPLIED 40 MIN PRIOR TO EACH PROMOTER DOSE (STUDY DURATION: 18 WK), Route [Inhibitor]: DERMAL, Species: MOUSE, Strain/Sex: ICR, Target Tissue: Type of Lesion: SKIN: CARCINOMA, Dose [Carcinogen]: 100 UG ONCE, Promoter: 12-O-TETRADECANOYLPHORBOL-13-ACETATE, 16561-29-8): 100%, 40%, 60%, not calculated

Clc1ccc(C(c2ccc(Cl)cc2)C(Cl)(Cl)Cl)cc1
outcome (Carcinogen: DIETHYLNITROSAMINE [55-18-5], Dose [Inhibitor]: 0, 0.005, 0.5, 500 PPM FOR 11 OR 43 WKS BEGINNING 1 WK AFTER CARCINOGEN (STUDY DURATION: 45 WKS), Dose [Inhibitor]: 0, 0.005, 0.5, 500 PPM FOR 11 OR 43 WKS BEGINNING 1 WK AFTER CARCINOGEN (STUDY DURATION: 45 WKS), Route [Inhibitor]: DIET, Species: RAT, Strain/Sex: F344/MALE, Target Tissue: Type of Lesion: LIVER: HEPATOCELLULAR ADENOMA, Dose [Carcinogen]: 100 MG/KG BW TWICE AT 1 WK INTERVALS (STUDY DURATION: 45 WKS)): 55%; 65%, -18%; 50%, 9%; 100%, -82% | outcome (Carcinogen: DIETHYLNITROSAMINE [55-18-5], Dose [Inhibitor]: 0, 0.005, 0.5, 500 PPM FOR 11 OR 43 WKS BEGINNING 1 WK AFTER CARCINOGEN (STUDY DURATION: 45 WKS), Dose [Inhibitor]: 0, 0.005, 0.5, 500 PPM FOR 11 OR 43 WKS BEGINNING 1 WK AFTER CARCINOGEN (STUDY DURATION: 45 WKS), Route [Inhibitor]: DIET, Species: RAT, Strain/Sex: F344/MALE, Target Tissue: Type of Lesion: LIVER: HEPATOCELLULAR CARCINOMA, Dose [Carcinogen]: 100 MG/KG BW TWICE AT 1 WK INTERVALS (STUDY DURATION: 45 WKS)): 60%; 30%, 50%; 65%, -8%; 100%, -67% | tumour outcome (control, treated, inhibition, significance) (Dose [Inhibitor]: 0, 7.5 MG 2/WK FOR 14 WK BEGINNING SIMULTANEOUSLY WITH CARCINOGEN TREATMENT (STUDY DURATION: 1 YR), Route [Inhibitor]: GAVAGE, Species: RAT, Strain/Sex: WISTAR/MALE, Target Tissue: Type of Lesion: LIVER: BENIGN TUMORS, Dose [Carcinogen]: 50 UG 2/WK FOR WK 1-4 OF STUDY THEN 75 UG 2/WK FOR WK 5-8, Promoter: NONE USED): 22/25 (88%), 9/21 (43%), 51%, p<0.001 | tumour outcome (control, treated, inhibition, significance) (Dose [Inhibitor]: 0, 7.5 MG 2/WK FOR 14 WK BEGINNING SIMULTANEOUSLY WITH CARCINOGEN TREATMENT (STUDY DURATION: 1 YR), Route [Inhibitor]: GAVAGE, Species: RAT, Strain/Sex: WISTAR/MALE, Target Tissue: Type of Lesion: LIVER: CARCINOMA, Dose [Carcinogen]: 50 UG 2/WK FOR WK 1-4 OF STUDY THEN 75 UG 2/WK FOR WK 5-8, Promoter: NONE USED): 14/25 (56%), 7/21 (33%), 41%, p<0.07
